Laboratory results taken from patent publication EP0241395A2, “Sweeteners derived from n-phenylguanidinoacetic and n-phenylethananamidinacetic acids, and compositions containing such sweeteners” (UNIVERSITE CLAUDE BERNARD - LYON 1, priority 1986, dated 1987).

Test system: groupe de huit goûteurs expérimentés
Test: Sweetening power judged by a panel of eight experienced tasters against a sucrose reference solution
Assay type: in vivo
Settings: weight basis; for Pouvoir édulcorant: Table II, relative to a 2 % sucrose solution; for pouvoir édulcorant, sur une base pondérale: by comparison with a 2 % sucrose solution, approximate
Source text: Le pouvoir édulcorant des composés préparés dans les exemples suivants a été évalué par un groupe de huit goûteurs expérimentés. Pour cela, les composés, en solution aqueuse à des concentrations variables, sont comparés, sur le plan gustatif, à une solution témoin de saccharose à 2 % et dans certains cas à 5 % et 10 %, c'est-à-dire à des concentrations correspondant à celles utilisées lors d'un usage courant. Le pouvoir sucrant des édulcorants de synthèse varie en effet suivant la concentration de la solution de saccharose utilisée comme référence. Le pouvoir édulcorant du composé testé par rapport au saccharose correspond alors au rapport pondéral qui existe entre le composé et le saccharose à égale intensité édulcorante, c'est-à-dire quand les saveurs sucrées de la solution du composé testé et de la solution témoin de saccharose sont considérées, par une majorité de goûteurs, avoir la même intensité édulcorante.

N#Cc1ccc(N=C(NCC(=O)O)NC2CCCCCC2)cc1 [Exemple 45, acide N-[N-cycloheptylamino(4-cyanophénylimino)méthyl]-2-aminoéthanoïque]
Pouvoir édulcorant: 60000
pouvoir édulcorant, sur une base pondérale: ~60 000 fois celui du saccharose

O=C(O)CN=C(NCC1CCCCC1)Nc1ccc(C(=O)O)cc1 [Exemple 61, acide N-[N-cyclohexylméthylamino(4-carboxyphénylimino)méthyl]-2-aminoéthanoïque]
Pouvoir édulcorant: 50
pouvoir édulcorant, sur une base pondérale: ~50 fois celui du saccharose

C[C@H](NC(=Nc1ccc(O)cc1)NCC(=O)O)c1ccccc1 [Exemple 20, acide N-[N-(S)-α-méthylbenzylamino (4-hydroxyphénylimino)méthyl]-2-aminoéthanoïque]
Pouvoir édulcorant: 400
pouvoir édulcorant, sur une base pondérale: ~400 fois celui du saccharose

COC(=O)c1ccc(N=C(NCC(=O)O)N[C@@H](C)c2ccccc2)cc1 [Exemple 16, acide N-[N-(S)-α-méthylbenzylamino (4-méthoxycarbonylphénylimino)méthyl]-2-aminoéthanoïque]
Pouvoir édulcorant: 700
pouvoir édulcorant, sur une base pondérale: ~700 fois celui du saccharose

O=C(O)CNC(=Nc1ccccc1)Nc1ccccc1 [Exemple 40, acide N-[N-phénylamino(phénylimino)méthyl]-2-aminoéthanoique]
Pouvoir édulcorant: 500
pouvoir édulcorant, sur une base pondérale: ~500 fois celui du saccharose

Cc1ccc(N=C(NCC(=O)O)N[C@@H](C)c2ccccc2)cc1 [Exemple 12, acide N-[N-(S)-a-méthylbenzylamino (4-méthylphénylimino)méthyl]-2-aminoéthanoïque]
Pouvoir édulcorant: 800
pouvoir édulcorant, sur une base pondérale: ~800 fois celui du saccharose

C[C@H](NC(=Nc1cccc([N+](=O)[O-])c1)NCC(=O)O)c1ccccc1 [Exemple 8, acide N-[N-(S)-α-méthylbenzylamino (3-nitrophénylimino)méthyl] -2-aminoéthanoique]
Pouvoir édulcorant: 6000
pouvoir édulcorant, sur une base pondérale: ~6 000 fois celui du saccharose

C[C@H](NC(=Nc1cc(Cl)c(Cl)c(Cl)c1)NCC(=O)O)c1ccccc1 [Exemple 28, acide N-[N-(S)-α-méthylbenzylamino (3,4,5-trichlorophénylimino)méthyl]-2-aminoéthanoïque]
Pouvoir édulcorant: 35000
pouvoir édulcorant, sur une base pondérale: ~35 000 fois celui du saccharose

O=C(O)CNC(=Nc1cc(Cl)cc(Cl)c1)NCC1CCCCC1 [Exemple 57, acide N-[N-cyclohexylméthylamino (3,5-dichlorophénylimino)méthyl]-2-aminoéthanoïque]
Pouvoir édulcorant: 35000
pouvoir édulcorant, sur une base pondérale: ~35 000 fois celui du saccharose

N#Cc1ccc(N=C(NCC(=O)O)NC2CCc3ccccc32)cc1 (stereo not shown) [Exemple 70, acide N-[N-(1-indanyl)amino(4-cyanophénylimino)méthyl]-2-aminoéthanoïque]
Pouvoir édulcorant: 5000
pouvoir édulcorant, sur une base pondérale: ~5 000 fois celui du saccharose

C[C@H](NC(=Nc1cccc(C#N)c1)NCC(=O)O)c1ccccc1 [Exemple 7, acide N-[N-(S)-α-méthylbenzylamino (3-cyanophénylimino)méthyl]-2-aminoéthanoïque]
Pouvoir édulcorant: 5 500
pouvoir édulcorant, sur une base pondérale: ~5 500 fois celui du saccharose

N#CC(C#N)=C(NCC(=O)O)Nc1cc(Cl)cc(Cl)c1 [Exemple 30, acide N-[2,2-dicyano(3,5-dichlorophénylamino)éthényl]-2-aminoéthanoïque]
Pouvoir édulcorant: 30

Cc1cccc(N=C(NCC(=O)O)N[C@@H](C)c2ccccc2)c1 [Exemple 4, acide N-[N (S)-α-méthylbenzylamino (3-méthylphénylimino)méthyl]-2-aminoéthanoïque]
Pouvoir édulcorant: 12000
pouvoir édulcorant, sur une base pondérale: ~12 000 fois celui du saccharose
